In patent US8895474B2, “Herbicidally active cyclopentanediones and derivatives thereof, and their use in controlling weeds” (Syngenta Limited, priority 2009, dated 2014):

Experiments:
Type in all cases: in vivo
Settings in all cases: 312 h, rate 250 g/ha, evaluated after 13 days, 100=total damage to plant, 0=no damage to plant
[1] = tested on: Alopecurus myosuroides (ALOMY); assay: Pre-emergence herbicidal activity, glasshouse pot test
Description: (§1) Seeds of a variety of test species were sown in standard soil in pots. After cultivation for one day (pre-emergence) or after 8 days cultivation (post-emergence) under controlled conditions in a glasshouse (at 24/16° C., day/night; 14 hours light; 65% humidity), the plants were sprayed with an aqueous spray solution derived from the formulation of the technical active ingredient in acetone/water (50:50) solution containing 0.5% Tween 20 (polyoxyethelyene sorbitan monolaurate, CAS RN 9005-64-5). The test plants were then grown in a glasshouse under controlled conditions in a glasshouse (at 24/16° C., day/night; 14 hours light; 65% humidity) and watered twice daily. After 13 days for pre and post-emergence, the test was evaluated (100=total damage to plant; 0=no damage to plant). Test Plants: Lolium perenne (LOLPE), Alopecurus myosuroides (ALOMY), Echinochloa crus-galli (ECHCG), and Avena fatua (AVEFA). Pre-Emergence Activity

Avena fatua (AVEFA) [2] = assay: as above
Description: as §1

[3] = tested on: Echinochloa crus-galli (ECHCG); assay: as above
Description: as §1

Lolium perenne (LOLPE) [4] = assay: as above
Description: as §1

[5] = tested on: Alopecurus myosuroides (ALOMY); assay: Post-emergence herbicidal activity, glasshouse pot test
Description: as §1, with “Post-Emergence” for “Pre-Emergence”

Avena fatua (AVEFA) [6] = assay: as above
Description: as §1, with “Post-Emergence” for “Pre-Emergence”

[7] = tested on: Echinochloa crus-galli (ECHCG); assay: as above
Description: as §1, with “Post-Emergence” for “Pre-Emergence”

Lolium perenne (LOLPE) [8] = assay: as above
Description: as §1, with “Post-Emergence” for “Pre-Emergence”

SMILES | pest or weed control at 250 g/ha [1] | pest or weed control at 250 g/ha (Avena fatua (AVEFA) [2]) | pest or weed control at 250 g/ha [3] | pest or weed control at 250 g/ha (Lolium perenne (LOLPE) [4]) | pest or weed control at 250 g/ha [5] | pest or weed control at 250 g/ha (Avena fatua (AVEFA) [6]) | pest or weed control at 250 g/ha [7] | pest or weed control at 250 g/ha (Lolium perenne (LOLPE) [8])
CCc1ccc(Oc2ccc(Cl)c(F)c2)cc1C1=C(O)[C@H]2[C@H]3CC[C@H](C3)[C@H]2C1=O [Compound A-26] | 0% | 0% | 80% | 20% | 60% | 80% | 80% | 30%
CCc1ccc(Oc2cccc(Cl)c2)cc1C1=C(O)[C@H]2[C@@H](C1=O)[C@@H]1CC[C@H]2O1 [Compound A-7] | 60% | 50% | 70% | 60% | 60% | 80% | 100% | 60%
CCc1ccc(Oc2ccc(Cl)cc2F)cc1C1=C(O)CCC1=O [Compound A-40] | 0% | 0% | 40% | 10% | 10% | 10% | 30% | 10%
CCc1ccc(Oc2ccc(Cl)cc2Cl)cc1C1=C(O)[C@H]2[C@@H](C1=O)[C@@H]1CC[C@H]2O1 [Compound A-44] | 80% | 80% | 80% | 90% | 80% | 80% | 80% | 90%
CCc1ccc(Oc2ncc(C(F)(F)F)cc2C(F)(F)F)cc1C1=C(O)CCC1=O [Compound A-71] | 90% | 80% | 100% | 100% | 100% | 100% | 100% | 100%
CCc1ccc(Oc2ccc(Cl)cc2)cc1C1=C(O)[C@H]2[C@@H](C1=O)[C@@H]1CC[C@H]2O1 [Compound A-1, meso-(1R,2S,6R,7S)-4-[5-(4-chlorophenoxy)-2-ethylphenyl]-10-oxatricyclo[5.2.1.0^2,6]decane-3,5-dione] | 70% | 70% | 70% | 70% | 100% | 80% | 100% | 80%
CCc1ccc(Oc2ccc(Cl)cc2)cc1C1=C(O)CCC1=O [Compound A-39] | 20% | 30% | 40% | 0% | 10% | 0% | 60% | 10%
CCc1ccc(Oc2ccc(Br)cc2)cc1C1=C(O)CCC1=O [Compound A-37] | 10% | 0% | 20% | 10% | 20% | 20% | 80% | 30%
CCc1ccc(Oc2nc3ccccc3s2)cc1C1=C(O)[C@H]2[C@H]3CC[C@H](C3)[C@H]2C1=O [Compound A-12] | 60% | 30% | 70% | 70% | 100% | 50% | 100% | 70%
CCc1ccc(Oc2ccc(Br)cc2Cl)cc1C1=C(O)[C@H]2[C@H]3CC[C@H](C3)[C@H]2C1=O [Compound A-20] | 50% | 10% | 60% | 50% | 30% | 0% | 70% | 20%
